The target of one experiment is human factor Xa (Homo sapiens, UniProt P00742). Nature of the experiment: Simultaneous chromogenic determination of factor Xa inhibition in enriched normal plasma (Z-D-Leu-Gly-Arg-ANBA-methylamide, 405 nm). Format: biochemical. The method, then:
(§1) The following components were mixed to form one reaction: • 10 μl sample • 10 μl pool of normal human plasma • 40 μl substrate reagent (4 mM Z-D-Leu-Gly-Arg-ANBA-methylamide, 0.8 mM Tos-Gly-Pro-Arg-Basic Blue 49 in mannitol buffer, pH 4.0) • 100 μl factor Xa reagent (0.75 U/ml human factor Xa in 4.5 g/l TRIS, 9 g/l NaCl, 0.56 g/l EDTA, pH 8.0) • 100 μl thrombin reagent (5 U/ml bovine thrombin in 1.2 g/l TRIS, pH 8.2)
(§2) The sample used was normal human plasma. Factor Xa cleaves ANBA from the factor Xa-specific peptide substrate Z-D-Leu-Gly-Arg-ANBA-methylamide, increasing over time the optical density in the reaction at a wavelength of 405 nm. At the same time, thrombin cleaves Basic Blue 49 from the thrombin-specific peptide substrate Tos-Gly-Pro-Arg-Basic Blue 49, increasing over time the optical density in the reaction at a wavelength of 575 nm.
(§3) The measurements of the optical densities of the reaction at 405 nm and 575 nm and the evaluation of the reaction kinetics were carried out simultaneously in a fully automated Sysmex® CS-2000i coagulation analyzer. To measure the optical densities, the reaction was irradiated alternately with light of the aforementioned wavelengths, and the absorbance of the light, caused by the coloration of the reaction, was determined as a function of wavelength and time.
(§4) The increases in the reaction kinetics for normal plasma without inhibitors were defined as 100% of the respective enzyme activity.

A further experiment concerns the target bovine thrombin (Bos taurus, UniProt P00735). Nature of the experiment: Simultaneous chromogenic determination of thrombin inhibition in enriched normal plasma (Tos-Gly-Pro-Arg-Basic Blue 49, 575 nm). Format: biochemical. The method, then:
as §1, §2, §3
Normal plasma was enriched with various concentrations of rivaroxaban, a specific factor Xa inhibitor, and/or of argatroban, a specific thrombin inhibitor, and used as a sample in a method as per example 1.
as §4

From US8932826B2, “Method for simultaneously determining multiple coagulation proteases” (Siemens Healthcare Diagnostics Products GmbH, priority 2010, dated 2015) come the findings set out here.

Sequence of human factor Xa (P00742 235-488 limits assumed): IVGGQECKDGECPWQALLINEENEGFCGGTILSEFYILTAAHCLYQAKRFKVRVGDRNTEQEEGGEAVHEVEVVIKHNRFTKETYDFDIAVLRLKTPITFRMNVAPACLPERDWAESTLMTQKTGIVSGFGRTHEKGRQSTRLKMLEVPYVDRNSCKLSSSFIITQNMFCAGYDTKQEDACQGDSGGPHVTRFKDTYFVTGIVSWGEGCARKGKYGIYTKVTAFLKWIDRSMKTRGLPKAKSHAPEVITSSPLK
Sequence of human factor Xa (P00742 41-179 partner limits assumed): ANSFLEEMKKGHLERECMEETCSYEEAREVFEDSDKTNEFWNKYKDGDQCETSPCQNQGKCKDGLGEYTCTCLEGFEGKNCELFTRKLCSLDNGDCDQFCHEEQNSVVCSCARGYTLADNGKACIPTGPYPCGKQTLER

In the case of `CC1CNc2c(cccc2S(=O)(=O)N[C@@H](CCCNC(=N)N)C(=O)N2CC[C@@H](C)C[C@@H]2C(=O)O)C1` (stereo partly drawn) [Argatroban, argatroban], the inhibition (usually how much of the control response was suppressed) at 0.375 µg/mL on human factor Xa (normal plasma enriched with argatroban 375 ng/ml, rivaroxaban 0 ng/ml, read-out: F Xa inhibition [%]) was 0%; on bovine thrombin (normal plasma enriched with argatroban 375 ng/ml, rivaroxaban 0 ng/ml), 18%. For the same molecule, the inhibition at 0.75 µg/mL on human factor Xa (normal plasma enriched with argatroban 750 ng/ml, rivaroxaban 0 ng/ml, read-out: F Xa inhibition [%]) stood at 0%; on bovine thrombin (normal plasma enriched with argatroban 750 ng/ml, rivaroxaban 0 ng/ml), 31%. Besides, the “inhibition of thrombin activity, in words (FIG. 2)” value against bovine thrombin (samples having an increased argatroban concentration, irrespective of the rivaroxaban concentration) is “increased thrombin inhibition”.

In the case of `O=C(NC[C@H]1CN(c2ccc(N3CCOCC3=O)cc2)C(=O)O1)c1ccc(Cl)s1` [Rivaroxaban, rivaroxaban], the inhibition at 0.125 µg/mL on human factor Xa (normal plasma enriched with rivaroxaban 125 ng/ml, argatroban 0 ng/ml, read-out: F Xa inhibition [%]) was 42%. The inhibition at 0.25 µg/mL turned out to be 65% on human factor Xa (normal plasma enriched with rivaroxaban 250 ng/ml, argatroban 0 ng/ml, read-out: F Xa inhibition [%]) and 5% on bovine thrombin (normal plasma enriched with rivaroxaban 250 ng/ml, argatroban 0 ng/ml). The “inhibition of factor Xa activity, in words (FIG. 1)” value against human factor Xa (samples having an increased rivaroxaban concentration, irrespective of the argatroban concentration) is “increased factor Xa inhibition”.
